Reference: ChEMBL document CHEMBL4840323, “Discovery of an Orally Bioavailable Small-Molecule Inhibitor for the β-Catenin/B-Cell Lymphoma 9 Protein-Protein Interaction” (J Med Chem, 2021)

Assays:
[1] = target: T1, beta-catenin-B-cell lymphoma 9 protein complex (Homo sapiens, UniProt P35222); test: Inhibition of N-terminal 6-His-tagged beta-catenin (1 to 781 residues) (unknown origin) expressed in Escherichia coli BL21 (DE3)-N-terminal biotinylated human BCL9 (350 to 375 residues) protein-protein interaction incubated for 1 hr by Alphascreen assay
T1 sequence (P35222 whole entry): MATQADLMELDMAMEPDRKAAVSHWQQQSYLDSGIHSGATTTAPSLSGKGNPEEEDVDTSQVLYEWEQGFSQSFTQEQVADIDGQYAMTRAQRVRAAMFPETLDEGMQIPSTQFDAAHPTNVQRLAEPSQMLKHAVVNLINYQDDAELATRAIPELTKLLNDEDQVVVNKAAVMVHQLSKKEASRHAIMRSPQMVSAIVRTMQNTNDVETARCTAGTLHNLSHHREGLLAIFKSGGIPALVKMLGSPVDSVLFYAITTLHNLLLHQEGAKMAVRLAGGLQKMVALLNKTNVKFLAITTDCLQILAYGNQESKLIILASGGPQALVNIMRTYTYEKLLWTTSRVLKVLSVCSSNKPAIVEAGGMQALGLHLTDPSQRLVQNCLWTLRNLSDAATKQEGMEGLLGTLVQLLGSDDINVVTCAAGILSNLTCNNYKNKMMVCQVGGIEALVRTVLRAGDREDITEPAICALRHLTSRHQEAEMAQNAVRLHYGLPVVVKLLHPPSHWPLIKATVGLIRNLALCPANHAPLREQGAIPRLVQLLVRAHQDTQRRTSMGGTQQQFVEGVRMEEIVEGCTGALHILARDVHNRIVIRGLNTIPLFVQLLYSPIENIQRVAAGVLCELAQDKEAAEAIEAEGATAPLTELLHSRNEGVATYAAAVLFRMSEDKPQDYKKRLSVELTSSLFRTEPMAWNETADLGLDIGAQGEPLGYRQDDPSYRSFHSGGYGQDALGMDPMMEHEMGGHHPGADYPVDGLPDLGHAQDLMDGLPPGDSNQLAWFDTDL
T1 sequence (O00512 whole entry): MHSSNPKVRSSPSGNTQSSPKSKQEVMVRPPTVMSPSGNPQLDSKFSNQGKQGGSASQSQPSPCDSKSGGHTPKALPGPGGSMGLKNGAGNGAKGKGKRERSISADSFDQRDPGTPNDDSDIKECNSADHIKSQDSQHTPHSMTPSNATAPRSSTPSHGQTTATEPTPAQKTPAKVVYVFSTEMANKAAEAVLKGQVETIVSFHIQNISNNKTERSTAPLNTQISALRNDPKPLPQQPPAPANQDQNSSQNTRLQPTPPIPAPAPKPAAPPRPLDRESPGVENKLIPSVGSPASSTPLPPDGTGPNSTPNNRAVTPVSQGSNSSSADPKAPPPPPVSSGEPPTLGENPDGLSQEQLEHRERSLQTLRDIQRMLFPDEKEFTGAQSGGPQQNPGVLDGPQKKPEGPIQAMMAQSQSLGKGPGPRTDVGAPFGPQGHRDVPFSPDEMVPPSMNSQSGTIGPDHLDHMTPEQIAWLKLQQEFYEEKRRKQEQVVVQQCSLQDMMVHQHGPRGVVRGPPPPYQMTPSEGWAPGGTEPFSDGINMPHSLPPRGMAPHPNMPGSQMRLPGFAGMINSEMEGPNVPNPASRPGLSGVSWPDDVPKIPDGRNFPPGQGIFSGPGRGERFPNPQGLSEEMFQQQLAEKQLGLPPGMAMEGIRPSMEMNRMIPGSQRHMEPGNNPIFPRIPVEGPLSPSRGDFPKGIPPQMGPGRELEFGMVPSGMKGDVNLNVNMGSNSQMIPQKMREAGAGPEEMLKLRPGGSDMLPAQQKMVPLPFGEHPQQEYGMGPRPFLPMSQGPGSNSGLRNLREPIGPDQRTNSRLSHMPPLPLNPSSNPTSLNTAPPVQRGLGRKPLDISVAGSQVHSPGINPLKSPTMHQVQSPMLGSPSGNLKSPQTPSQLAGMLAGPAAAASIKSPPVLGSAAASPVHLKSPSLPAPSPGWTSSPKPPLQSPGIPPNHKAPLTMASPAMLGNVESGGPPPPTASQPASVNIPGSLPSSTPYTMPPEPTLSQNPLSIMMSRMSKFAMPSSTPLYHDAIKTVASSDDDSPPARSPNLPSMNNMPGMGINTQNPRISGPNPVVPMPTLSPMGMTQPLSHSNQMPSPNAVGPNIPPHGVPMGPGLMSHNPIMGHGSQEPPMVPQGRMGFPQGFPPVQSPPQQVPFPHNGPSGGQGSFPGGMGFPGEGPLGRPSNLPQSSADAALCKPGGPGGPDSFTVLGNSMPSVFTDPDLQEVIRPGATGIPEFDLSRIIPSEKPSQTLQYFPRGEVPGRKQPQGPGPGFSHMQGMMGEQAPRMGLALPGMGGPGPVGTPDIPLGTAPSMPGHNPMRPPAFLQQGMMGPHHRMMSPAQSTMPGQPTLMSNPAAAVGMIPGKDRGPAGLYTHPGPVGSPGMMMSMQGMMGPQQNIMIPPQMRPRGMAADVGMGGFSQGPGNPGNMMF

[2] = target: T1, beta-catenin-B-cell lymphoma 9 protein complex; test: Inhibition of C-terminal 6-His-tagged beta-catenin (1 to 781 residues) (unknown origin) expressed in Escherichia coli BL21 (DE3)-N-terminal biotinylated human BCL9 (350 to 375 residues) protein-protein interaction incubated for 1 hr by Alphascreen assay
Catenin beta-1 = target: T2, Catenin beta-1 (Homo sapiens, UniProt P35222); test: Inhibition of beta-catenin (unknown origin) transfected in HEK293 cells cotransfected with pCMV-RL assessed as reduction in luciferase activity measured after 24 hrs by TOPFlash luciferase reporter assay; format: cell-based
T2 sequence (P35222 whole entry): T1 sequence (P35222 whole entry)

[3] = Intrinsic clearance in mouse liver microsomes at 1 uM measured up to 60 mins in presence of NADPH by LC-MS/SM analysis; format: ADME, Microsome; conditions: 1 h
[4] = Half life in mouse liver microsomes at 1 uM measured up to 60 mins in presence of NADPH by LC-MS/SM analysis; format: ADME, Microsome; conditions: 1 h
[5] = Half life in human liver microsomes at 1 uM measured up to 60 mins in presence of NADPH by LC-MS/SM analysis; format: ADME, Microsome; conditions: 1 h
[6] = Intrinsic clearance in human liver microsomes at 1 uM measured up to 60 mins in presence of NADPH by LC-MS/SM analysis; format: ADME, Microsome
HCT-116 = test: cells; conditions: Homo sapiens, HCT-116, 72 h
Description: Antiproliferative activity against human HCT-116 cells assessed as cell growth inhibition measured after 72 hrs by MTS assay

MDA-MB-231 = test: cells; conditions: Homo sapiens, MDA-MB-231, 72 h
Description: Antiproliferative activity against human MDA-MB-231 cells assessed as cell growth inhibition measured after 72 hrs by MTS assay

MDA-MB-468 = test: cells; conditions: Homo sapiens, MDA-MB-468, 72 h
Description: Antiproliferative activity against human MDA-MB-468 cells assessed as cell growth inhibition measured after 72 hrs by MTS assay

MCF-10A = test: cells; conditions: Homo sapiens, 72 h
Description: Cytotoxicity against human MCF-10A cells assessed as cell growth inhibition measured after 72 hrs by MTS assay

SW480 = test: cells; conditions: Homo sapiens, SW480, 72 h
Description: Antiproliferative activity against human SW480 cells assessed as cell growth inhibition measured after 72 hrs by MTS assay

| Structure (SMILES) | Ki [1] [µM] | IC50 [2] [µM] | other results |
| --- | --- | --- | --- |
| CC(C)(Oc1cccc(N2CCC[C@@H](C(=O)N(Cc3ccc(-c4ccn[nH]4)cc3)C3CC3)C2)c1)C(=O)N1CCNCC1 | 8 | 8.9 | – |
| CC(C)(Oc1cccc(N2CCC[C@@H](C(=O)N(Cc3ccc(-c4ccccn4)cc3)C3CC3)C2)c1)C(=O)N1CCNCC1 | 54 | 59 | – |
| CN1CCN(C(=O)C(C)(C)Oc2cccc(N3CCC[C@@H](C(=O)N(Cc4ccc(-c5cn[nH]c5)cc4)C4CC4)C3)c2)CC1 | 32 | 39 | IC50 (Catenin beta-1): > 200 µM |
| CC(C)c1ccc(CNC(=O)[C@H]2CCCN(c3cccc(OC(C)(C)C(=O)O)c3)C2)cc1 | > 90 | > 100 | – |
| CC(C)(Oc1cccc(N2CCC[C@@H](C(=O)N(Cc3ccc(-c4ccncc4)cc3)C3CC3)C2)c1)C(=O)N1CCNCC1 | 74 | 82 | – |
| CCN(Cc1ccc(-c2cn[nH]c2)cc1)C(=O)[C@@H]1CCCN(c2cccc(OC(C)(C)C(=O)N3CCNCC3)c2)C1.Cl | – | – | CLint [3]: 90 µL/min/mg; t1/2 [4]: 7.7 min; t1/2 [5]: 28.3 min; CLint at 1 h, 1 µM [6]: 24 µL/min/mg |
| CC(C)(Oc1cccc(N2CCC[C@@H](C(=O)N(Cc3ccc(C4CCCCC4)cc3)C3CC3)C2)c1)C(=O)N1CCNCC1 | 4.8 | 5.3 | – |
| CC(C)(Oc1cccc(N2CCC[C@@H](C(=O)N(Cc3ccc(C(C)(C)C)cc3)C3CC3)C2)c1)C(=O)N1CCNCC1 | 13 | 14 | – |
| CCOCCN(Cc1ccc(-c2cn[nH]c2)cc1)C(=O)[C@@H]1CCCN(c2cccc(OC(C)(C)C(=O)N3CCNCC3)c2)C1 | 1.9 | 2.1 | – |
| CCN(CC)CCNC(=O)c1c(C)[nH]c(/C=C2\C(=O)Nc3ccc(F)cc32)c1C [SUNITINIB] | – | – | CLint [3]: 53 µL/min/mg; t1/2 [4]: 13 min |
| CCN(Cc1ccc(C(C)C)cc1)C(=O)[C@@H]1CCCN(c2cccc(OC(C)(C)C(=O)N3CCNCC3)c2)C1 | 11 | 12 | – |
| CC(C)c1ccc(CNC(=O)[C@@H]2CCCN(c3cccc(OC(C)(C)C(=O)N4CCNCC4)c3)C2)cc1 | 5.8 | 6.4 | – |
| CC(C)c1ccc(CN(C(=O)[C@@H]2CCCN(c3cccc(OC(C)(C)C(=O)N4CCNCC4)c3)C2)C2CC2)cc1 | 2.7 | 3 | – |
| CC(C)c1ccc(CN(C)C(=O)[C@@H]2CCCN(c3cccc(OC(C)(C)C(=O)N4CCNCC4)c3)C2)cc1 | 14 | 15 | – |
| CC(C)(Oc1cccc(N2CCC[C@@H](C(=O)N(Cc3ccc(-c4cccnc4)cc3)C3CC3)C2)c1)C(=O)N1CCNCC1 | 66 | 73 | – |
| Cc1cc(-c2ncc(CC(=O)Nc3ccc(-c4cnccn4)cn3)cc2C)ccn1 [WNT-974] | – | – | IC50 (HCT-116): > 100 µM; IC50 (MDA-MB-231): > 100 µM; IC50 (MDA-MB-468): > 100 µM; IC50 (MCF-10A): > 100 µM; IC50 (SW480): > 100 µM |
| O=C1[C@H](Cc2ccc(O)cc2)N2C(=O)CCN(C(=O)NCc3ccccc3)[C@H]2CN1Cc1cccc2ccccc12 | – | – | IC50 (HCT-116): 38 µM; IC50 (MDA-MB-231): 7.2 µM; IC50 (MDA-MB-468): 31 µM; IC50 (MCF-10A): 21 µM; IC50 (SW480): 6.1 µM |
| Cn1cc(-c2ccc(CN(C(=O)[C@@H]3CCCN(c4cccc(OC(C)(C)C(=O)N5CCNCC5)c4)C3)C3CC3)cc2)cn1 | 68 | 76 | – |
| CC(C)(Oc1cccc(N2CCC[C@@H](C(=O)N(Cc3ccc(-c4ccccc4)cc3)C3CC3)C2)c1)C(=O)N1CCNCC1 | 4 | 4.5 | – |
| CC(C)(Oc1cccc(N2CCC[C@@H](C(=O)N(Cc3ccc(-c4cn[nH]c4)cc3)C3CC3)C2)c1)C(=O)N1CCCCC1 | 43 | 53 | – |
| CC(C)c1ccc(CNC(=O)[C@@H]2CCCN(c3cccc(OC(C)(C)C(=O)O)c3)C2)cc1 | 46 | 51 | – |
| CC(C)(Oc1cccc(N2CCC[C@@H](C(=O)N(Cc3ccc(-c4ccsc4)cc3)C3CC3)C2)c1)C(=O)N1CCNCC1 | 5 | 5.5 | – |
| CC(C)c1ccc(CN(C(=O)[C@@H]2CCCN(c3cccc(OC(C)(C)C(=O)N4CCNCC4)c3)C2)C(C)C)cc1 | 4.6 | 5.1 | – |
